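Tested at 5 concentrations; 48 h exposure; 96-well plates; endpoints linearly interpolated, else capped at highest concentration. TGI denotes the concentration required for complete inhibition of growth.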
What was measured:
Assay in all cases: DTP human tumour cell line panel, 48 h
K-562 leukemia = system: K-562 leukemia
UACC-257 melanoma = system: UACC-257 melanoma
HOP-62 NSCLC = system: HOP-62 NSCLC
COLO 205 colon = system: COLO 205 colon
SN12C renal = system: SN12C renal
OVCAR-5 ovarian = system: OVCAR-5 ovarian
CAKI-1 renal = system: CAKI-1 renal
SK-MEL-28 melanoma = system: SK-MEL-28 melanoma
SR leukemia = system: SR leukemia
MDA-MB-231 breast = system: MDA-MB-231 breast
IGROV1 ovarian = system: IGROV1 ovarian
OVCAR-8 ovarian = system: OVCAR-8 ovarian
SNB-75 CNS = system: SNB-75 CNS
MALME-3M melanoma = system: MALME-3M melanoma
U251 CNS = system: U251 CNS
SK-OV-3 ovarian = system: SK-OV-3 ovarian
SK-MEL-2 melanoma = system: SK-MEL-2 melanoma
UACC-62 melanoma = system: UACC-62 melanoma
NCI/ADR-RES ovarian = system: NCI/ADR-RES ovarian
LOX IMVI melanoma = system: LOX IMVI melanoma
OVCAR-3 ovarian = system: OVCAR-3 ovarian
KM12 colon = system: KM12 colon
786-0 renal = system: 786-0 renal
SK-MEL-5 melanoma = system: SK-MEL-5 melanoma
NCI-H460 lung = system: NCI-H460 lung
HL-60(TB) leukemia = system: HL-60(TB) leukemia
NCI-H522 lung = system: NCI-H522 lung
UO-31 renal = system: UO-31 renal
OVCAR-4 ovarian = system: OVCAR-4 ovarian
SW-620 colon = system: SW-620 colon
HT29 colon = system: HT29 colon
PC-3 prostate = system: PC-3 prostate
TK-10 renal = system: TK-10 renal
ACHN renal = system: ACHN renal
A498 renal = system: A498 renal
MDA-MB-435 = system: MDA-MB-435
M14 melanoma = system: M14 melanoma
HCT-15 colon = system: HCT-15 colon
SNB-19 CNS = system: SNB-19 CNS
HCC-2998 colon = system: HCC-2998 colon
SF-268 CNS = system: SF-268 CNS
MCF7 breast = system: MCF7 breast
SF-295 CNS = system: SF-295 CNS
SF-539 CNS = system: SF-539 CNS
MOLT-4 leukemia = system: MOLT-4 leukemia
HCT-116 colon = system: HCT-116 colon
EKVX NSCLC = system: EKVX NSCLC
A549 NSCLC = system: A549 NSCLC
BT-549 breast = system: BT-549 breast
DU-145 prostate = system: DU-145 prostate
MDA-N = system: MDA-N
NCI-H23 lung = system: NCI-H23 lung
CCRF-CEM leukemia = system: CCRF-CEM leukemia
RPMI-8226 leukemia = system: RPMI-8226 leukemia
HOP-92 NSCLC = system: HOP-92 NSCLC
NCI-H226 lung = system: NCI-H226 lung
RXF 393 renal = system: RXF 393 renal
HS 578T breast = system: HS 578T breast
T-47D breast = system: T-47D breast

## COC(=O)c1cc(S(=O)(=O)NC2=NCC(C)NN2)c(S)cc1Cl (configuration not stated)
K-562 leukemia
  TGI: > 100 µM
UACC-257 melanoma
  TGI: > 100 µM
HOP-62 NSCLC
  TGI: > 100 µM
COLO 205 colon
  TGI: > 100 µM
SN12C renal
  TGI: > 100 µM
OVCAR-5 ovarian
  TGI: > 100 µM
CAKI-1 renal
  TGI: > 100 µM
SK-MEL-28 melanoma
  TGI: > 100 µM
SR leukemia
  TGI: > 100 µM
MDA-MB-231 breast
  TGI: > 100 µM
IGROV1 ovarian
  TGI: > 100 µM
OVCAR-8 ovarian
  TGI: > 100 µM
SNB-75 CNS
  TGI: 75.3 µM
MALME-3M melanoma
  TGI: 97.5 µM
U251 CNS
  TGI: > 100 µM
SK-OV-3 ovarian
  TGI: > 100 µM
SK-MEL-2 melanoma
  TGI: 84.5 µM
UACC-62 melanoma
  TGI: > 100 µM
NCI/ADR-RES ovarian
  TGI: > 100 µM
LOX IMVI melanoma
  TGI: > 100 µM
OVCAR-3 ovarian
  TGI: > 100 µM
KM12 colon
  TGI: > 100 µM
786-0 renal
  TGI: > 100 µM
SK-MEL-5 melanoma
  TGI: 82.3 µM
NCI-H460 lung
  TGI: > 100 µM
HL-60(TB) leukemia
  TGI: > 100 µM
NCI-H522 lung
  TGI: 47.5 µM
UO-31 renal
  TGI: > 100 µM
OVCAR-4 ovarian
  TGI: > 100 µM
SW-620 colon
  TGI: > 100 µM
HT29 colon
  TGI: > 100 µM
PC-3 prostate
  TGI: > 100 µM
TK-10 renal
  TGI: > 100 µM
ACHN renal
  TGI: > 100 µM
A498 renal
  TGI: 72.8 µM
MDA-MB-435
  TGI: > 100 µM
M14 melanoma
  TGI: > 100 µM
HCT-15 colon
  TGI: > 100 µM
SNB-19 CNS
  TGI: > 100 µM
HCC-2998 colon
  TGI: > 100 µM
SF-268 CNS
  TGI: 60.6 µM
MCF7 breast
  TGI: > 100 µM
SF-295 CNS
  TGI: > 100 µM
SF-539 CNS
  TGI: > 100 µM
MOLT-4 leukemia
  TGI: > 100 µM
HCT-116 colon
  TGI: > 100 µM
EKVX NSCLC
  TGI: > 100 µM
A549 NSCLC
  TGI: > 100 µM
BT-549 breast
  TGI: > 100 µM
DU-145 prostate
  TGI: > 100 µM
MDA-N
  TGI: > 100 µM
NCI-H23 lung
  TGI: > 100 µM
CCRF-CEM leukemia
  TGI: > 100 µM
RPMI-8226 leukemia
  TGI: > 100 µM

## O=c1c(-c2ccccc2)nnc2n(Cc3ccccc3)c3ccccc3n12
UACC-257 melanoma
  TGI: > 100 µM
HOP-92 NSCLC
  TGI: > 100 µM
COLO 205 colon
  TGI: > 100 µM
SN12C renal
  TGI: > 100 µM
OVCAR-5 ovarian
  TGI: > 100 µM
CAKI-1 renal
  TGI: > 100 µM
SK-MEL-28 melanoma
  TGI: > 100 µM
SR leukemia
  TGI: > 100 µM
MDA-MB-231 breast
  TGI: > 100 µM
IGROV1 ovarian
  TGI: > 100 µM
NCI-H226 lung
  TGI: > 100 µM
OVCAR-8 ovarian
  TGI: > 100 µM
SNB-75 CNS
  TGI: > 100 µM
MALME-3M melanoma
  TGI: > 100 µM
U251 CNS
  TGI: > 100 µM
SK-MEL-2 melanoma
  TGI: > 100 µM
NCI/ADR-RES ovarian
  TGI: > 100 µM
LOX IMVI melanoma
  TGI: > 100 µM
KM12 colon
  TGI: > 100 µM
786-0 renal
  TGI: > 100 µM
SK-MEL-5 melanoma
  TGI: > 100 µM
NCI-H460 lung
  TGI: > 100 µM
RXF 393 renal
  TGI: > 100 µM
HL-60(TB) leukemia
  TGI: > 100 µM
NCI-H522 lung
  TGI: > 100 µM
UO-31 renal
  TGI: > 100 µM
HS 578T breast
  TGI: > 100 µM
OVCAR-4 ovarian
  TGI: > 100 µM
SW-620 colon
  TGI: > 100 µM
HT29 colon
  TGI: > 100 µM
TK-10 renal
  TGI: > 100 µM
ACHN renal
  TGI: > 100 µM
A498 renal
  TGI: > 100 µM
MDA-MB-435
  TGI: > 100 µM
M14 melanoma
  TGI: > 100 µM
HCT-15 colon
  TGI: > 100 µM
SNB-19 CNS
  TGI: > 100 µM
HCC-2998 colon
  TGI: > 100 µM
SF-268 CNS
  TGI: > 100 µM
MCF7 breast
  TGI: > 100 µM
T-47D breast
  TGI: > 100 µM
SF-295 CNS
  TGI: > 100 µM
SF-539 CNS
  TGI: > 100 µM
MOLT-4 leukemia
  TGI: > 100 µM
HCT-116 colon
  TGI: > 100 µM
EKVX NSCLC
  TGI: > 100 µM
A549 NSCLC
  TGI: > 100 µM
BT-549 breast
  TGI: > 100 µM
DU-145 prostate
  TGI: > 100 µM
MDA-N
  TGI: > 100 µM
NCI-H23 lung
  TGI: > 100 µM
CCRF-CEM leukemia
  TGI: > 100 µM

## Cc1cccc2sc(NC(=O)NS(=O)(=O)n3cnc4ccccc43)nc12
UACC-257 melanoma
  TGI: 74.8 µM
HOP-62 NSCLC
  TGI: > 100 µM
HOP-92 NSCLC
  TGI: 38.7 µM
COLO 205 colon
  TGI: > 100 µM
SN12C renal
  TGI: > 100 µM
OVCAR-5 ovarian
  TGI: 89.4 µM
CAKI-1 renal
  TGI: > 100 µM
SK-MEL-28 melanoma
  TGI: > 100 µM
MDA-MB-231 breast
  TGI: 93.3 µM
IGROV1 ovarian
  TGI: 51.1 µM
NCI-H226 lung
  TGI: > 100 µM
OVCAR-8 ovarian
  TGI: 67.1 µM
SNB-75 CNS
  TGI: 63.3 µM
MALME-3M melanoma
  TGI: 72 µM
U251 CNS
  TGI: 48.2 µM
SK-OV-3 ovarian
  TGI: > 100 µM
SK-MEL-2 melanoma
  TGI: 35.6 µM
UACC-62 melanoma
  TGI: 34.3 µM
NCI/ADR-RES ovarian
  TGI: > 100 µM
OVCAR-3 ovarian
  TGI: 46.8 µM
KM12 colon
  TGI: > 100 µM
786-0 renal
  TGI: > 100 µM
SK-MEL-5 melanoma
  TGI: 56.3 µM
NCI-H460 lung
  TGI: > 100 µM
RXF 393 renal
  TGI: 49.1 µM
HL-60(TB) leukemia
  TGI: > 100 µM
NCI-H522 lung
  TGI: 62.9 µM
UO-31 renal
  TGI: 61.5 µM
HS 578T breast
  TGI: 52.1 µM
OVCAR-4 ovarian
  TGI: > 100 µM
SW-620 colon
  TGI: > 100 µM
HT29 colon
  TGI: > 100 µM
PC-3 prostate
  TGI: 95.3 µM
TK-10 renal
  TGI: > 100 µM
ACHN renal
  TGI: > 100 µM
A498 renal
  TGI: 72.3 µM
MDA-MB-435
  TGI: > 100 µM
M14 melanoma
  TGI: > 100 µM
HCT-15 colon
  TGI: > 100 µM
SNB-19 CNS
  TGI: > 100 µM
HCC-2998 colon
  TGI: 30.3 µM
SF-268 CNS
  TGI: > 100 µM
MCF7 breast
  TGI: > 100 µM
T-47D breast
  TGI: 62.6 µM
SF-295 CNS
  TGI: 50.1 µM
SF-539 CNS
  TGI: 78 µM
MOLT-4 leukemia
  TGI: 88 µM
HCT-116 colon
  TGI: 99.3 µM
EKVX NSCLC
  TGI: > 100 µM
A549 NSCLC
  TGI: > 100 µM
BT-549 breast
  TGI: 59.9 µM
DU-145 prostate
  TGI: > 100 µM
MDA-N
  TGI: > 100 µM
NCI-H23 lung
  TGI: 43.6 µM
CCRF-CEM leukemia
  TGI: > 100 µM
RPMI-8226 leukemia
  TGI: 84.3 µM

Source: PubChem BioAssay (NCI)
